4 compounds from paper PMC10581841, “Rapid Separation of Asiatic Acid, Quercetin, and Kaempferol from Traditional Chinese Medicine Centella asiatica (L.) Urban Using HSCCC-Semi-Prep-HPLC and the Assessment of Their Potential as Fatty Acid Synthase Inhibitors” (International Journal of Analytical Chemistry, 2023) can be followed below.

This assay has as its target T1, fatty acid synthetase (FAS) (Anas platyrhynchos, UniProt A0A0D3LZ43).
T1 construct: native enzyme purified from fresh duck liver
The assay can be described thus: UV spectrophotometric FAS activity assay at […] nm (NADPH). Type of assay: biochemical.

Where [1] appears, read: read-out: IC50 (μg/mL) (converted).

Like-named read-outs stand apart in the source and are kept apart here.

T1 sequence (A0A0D3LZ43 1-2514): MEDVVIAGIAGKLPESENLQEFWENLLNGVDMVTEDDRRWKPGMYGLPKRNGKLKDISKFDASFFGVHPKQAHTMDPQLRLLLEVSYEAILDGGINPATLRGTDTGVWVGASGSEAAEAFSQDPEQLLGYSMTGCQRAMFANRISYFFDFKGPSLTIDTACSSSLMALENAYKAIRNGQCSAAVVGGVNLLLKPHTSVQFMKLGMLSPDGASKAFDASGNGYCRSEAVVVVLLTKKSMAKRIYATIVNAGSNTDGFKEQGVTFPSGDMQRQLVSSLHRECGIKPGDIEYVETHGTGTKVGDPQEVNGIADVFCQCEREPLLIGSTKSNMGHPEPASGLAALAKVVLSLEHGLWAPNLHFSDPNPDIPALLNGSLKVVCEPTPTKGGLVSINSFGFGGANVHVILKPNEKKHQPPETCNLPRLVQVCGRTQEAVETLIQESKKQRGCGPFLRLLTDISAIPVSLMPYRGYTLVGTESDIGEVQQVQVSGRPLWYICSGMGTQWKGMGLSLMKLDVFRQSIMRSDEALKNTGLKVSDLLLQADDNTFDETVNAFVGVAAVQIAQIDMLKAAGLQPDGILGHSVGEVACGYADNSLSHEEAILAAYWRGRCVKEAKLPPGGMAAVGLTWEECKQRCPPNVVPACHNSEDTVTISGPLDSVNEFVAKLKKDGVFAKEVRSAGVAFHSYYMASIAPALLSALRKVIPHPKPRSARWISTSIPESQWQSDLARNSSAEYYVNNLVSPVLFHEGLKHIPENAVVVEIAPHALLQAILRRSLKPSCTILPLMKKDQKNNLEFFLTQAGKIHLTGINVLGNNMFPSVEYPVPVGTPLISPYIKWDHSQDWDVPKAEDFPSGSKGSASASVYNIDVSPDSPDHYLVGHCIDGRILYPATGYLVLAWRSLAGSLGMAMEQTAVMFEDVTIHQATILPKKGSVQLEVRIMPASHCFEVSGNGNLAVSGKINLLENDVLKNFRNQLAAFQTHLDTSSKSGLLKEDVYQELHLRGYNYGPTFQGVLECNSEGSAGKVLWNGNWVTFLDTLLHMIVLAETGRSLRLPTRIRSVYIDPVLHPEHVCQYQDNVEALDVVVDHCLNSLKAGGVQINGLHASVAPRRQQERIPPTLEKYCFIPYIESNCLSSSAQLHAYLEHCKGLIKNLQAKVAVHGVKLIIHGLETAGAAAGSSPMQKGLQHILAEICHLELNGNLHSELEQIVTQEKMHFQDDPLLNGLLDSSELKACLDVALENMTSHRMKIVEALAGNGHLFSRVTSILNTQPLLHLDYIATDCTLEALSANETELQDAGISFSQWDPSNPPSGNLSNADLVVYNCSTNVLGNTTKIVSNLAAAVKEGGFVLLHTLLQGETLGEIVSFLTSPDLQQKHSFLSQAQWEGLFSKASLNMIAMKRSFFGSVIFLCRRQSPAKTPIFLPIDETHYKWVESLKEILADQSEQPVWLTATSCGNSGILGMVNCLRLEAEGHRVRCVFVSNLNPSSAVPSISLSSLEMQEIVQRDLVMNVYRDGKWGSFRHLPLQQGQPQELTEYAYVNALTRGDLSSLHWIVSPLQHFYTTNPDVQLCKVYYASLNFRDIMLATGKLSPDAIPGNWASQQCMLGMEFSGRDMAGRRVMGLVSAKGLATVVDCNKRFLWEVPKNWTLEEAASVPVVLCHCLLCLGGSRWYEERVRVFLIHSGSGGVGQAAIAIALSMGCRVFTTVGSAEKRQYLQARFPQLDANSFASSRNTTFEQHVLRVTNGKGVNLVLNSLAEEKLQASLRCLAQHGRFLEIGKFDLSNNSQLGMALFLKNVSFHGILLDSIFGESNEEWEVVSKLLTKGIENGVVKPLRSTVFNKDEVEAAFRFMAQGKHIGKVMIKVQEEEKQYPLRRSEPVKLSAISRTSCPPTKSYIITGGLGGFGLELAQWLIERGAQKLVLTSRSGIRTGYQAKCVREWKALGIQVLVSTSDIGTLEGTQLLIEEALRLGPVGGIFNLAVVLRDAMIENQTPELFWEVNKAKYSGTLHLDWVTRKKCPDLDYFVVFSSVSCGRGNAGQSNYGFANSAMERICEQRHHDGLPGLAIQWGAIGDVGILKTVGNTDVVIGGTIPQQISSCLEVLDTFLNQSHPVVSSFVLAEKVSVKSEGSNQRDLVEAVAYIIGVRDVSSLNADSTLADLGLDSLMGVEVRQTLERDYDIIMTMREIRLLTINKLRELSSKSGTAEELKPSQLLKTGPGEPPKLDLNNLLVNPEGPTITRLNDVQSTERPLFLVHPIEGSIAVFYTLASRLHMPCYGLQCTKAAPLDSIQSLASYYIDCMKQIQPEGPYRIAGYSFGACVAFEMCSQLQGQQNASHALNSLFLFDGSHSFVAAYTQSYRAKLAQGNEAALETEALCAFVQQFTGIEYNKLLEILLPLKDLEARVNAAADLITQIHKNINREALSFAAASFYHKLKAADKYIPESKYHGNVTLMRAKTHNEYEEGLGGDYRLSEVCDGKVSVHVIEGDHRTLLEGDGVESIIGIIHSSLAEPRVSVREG

For the compound `C[C@H]1[C@H](C)CC[C@]2(C(=O)O)CC[C@]3(C)C(=CC[C@@H]4[C@@]5(C)C[C@@H](O)[C@H](O)[C@@](C)(CO)[C@@H]5CC[C@]43C)[C@H]12` [AA, asiatic acid], under setting [1], the IC50 is 19.5 µM.

Consider `O=c1c(O)c(-c2ccc(O)cc2)oc2cc(O)cc(O)c12` [KPL, kaempferol], for which, under setting [1], the IC50 was 129 µM.

Take `C[C@H]1[C@H](C)CC[C@]2(C(=O)O)CC[C@]3(C)C(=CC[C@@H]4[C@@]5(C)C[C@@H](O)[C@H](O)[C@@](C)(CO)[C@@H]5[C@H](O)C[C@]43C)[C@H]12` [MA, madecassic acid]: the IC50 was 21.5 µM.

Turning to `O=c1c(O)c(-c2ccc(O)c(O)c2)oc2cc(O)cc(O)c12` [QCN, quercetin], the IC50 is 143 µM.
